Source: patent US9133225B2, “Dual targeting anticancer agents” (priority 2013, dated 2015)

Columns and labels:
[1] = test system: A549 cells; experiment: Immunoblotting of DNA damage and apoptosis biomarkers; type: cell-based; details: 0.75-6 μM, 48 h
Procedure: To gain further insight into the cellular response evoked by Pt(IV)(α-TOS)(OEt) treatment, biomarkers related to DNA damage and apoptosis were monitored. […] Whole cell lysates were resolved by SDS-PAGE and analyzed by immunoblotting against γH2AX, p53, and cleaved caspase-7, cleaved caspase-9, cleaved PARP-1, and β-actin as control.
A549 cells (5×10^5 cells) were incubated with test compound for 48 h at 37° C. Cells were washed with PBS, scraped into SDS-PAGE loading buffer (64 mM Tris-HCl (pH6.8)/9.6% glycerol/2% SDS/5% β-mercaptoethanol/0.01% Bromophenol Blue) and incubated at 95° C. for 10 min. Whole cell lysates were resolved by 4-20% sodium dodecylsulphate polyacylamide gel electrophoresis (SDS-PAGE; 200 V for 1 h) followed by electro transfer to polyvinylidene difluoride membrane, PVDF (350 mA for 1 h). Membranes were blocked in 5% (w/v) non-fat milk in PBST (PBS/0.1% Tween 20) and incubated with the appropriate primary antibodies (Cell Signalling Technology and Santa Cruz). After incubation with horseradish peroxidase-conjugated secondary antibodies (Cell Signalling Technology), immune complexes were detected with the ECL detection reagent (BioRad) and analysed using an Alpha Innotech ChemiImager™ 5500 fitted with a chemiluminescence filter.

[2] = test system: MCF-7 cells; experiment: MTT cytotoxicity assay, MCF-7; details: read-out: cytotoxicity IC50; MCF-7, breast; MTT, 48 h treatment; spread in brackets
Text: (a) Dulbecco's Modified Eagle Medium (DMEM), Dulbecco's phosphate buffered saline (DPBS), fetal bovine serum (FBS) and 0.25% trypsin/EDTA solutions were purchased from Cellgro (Manassas, Va.). Penicillin-streptomycin solutions were purchased from Mediatech (Manassas, Va.). (b) HeLa (CCL-2TM) cells, A549, A2870, A2870/CP70, MCF-7, PC-3, and MRC-5 cells were purchased from American Type Culture Collection (ATCC, Manassas, Va., USA). (c) HCT116 cells were kindly donated by Laura Trudel (MIT). HeLa, A549, MCF-7, and MRC-5 cells were cultured using DMEM supplemented with 10% FBS and 1% penicillin-streptomycin. A2870, A2870/CP70, and PC-3 cells were cultured in RPMI supplemented with 10% FBS and 1% penicillin-streptomycin. HCT116 cells were cultured in McCoy's supplemented with 10% FBS and 1% penicillin-streptomycin. All cell-culture experiments were performed in the aforementioned media in an incubator operating at 37° C. and in the presence of a humidified atmosphere containing 5.0% CO2. Cells were harvested using a 0.25% trypsin/EDTA solution.
The cytotoxicity of the compounds was assessed by means of the MTT assay (MTT=3-(4,5-dimethyl-2-thiazolyl)-2,5-diphenyl-2H-tetrazolium bromide). Typically, on day one, ˜1×10^3 cells were seeded into 96-well plates in 100 μL media per well. The last row of the plate was left empty as a control for background absorption. The cells were allowed to grow for 24 h in the incubator at 37° C. On day two, a series of drug dilutions in growth media were prepared immediately prior to cell treatment. The media in the wells of the 96 plates were replaced with 100 μL of growth media containing appropriate drug concentrations. The cells were treated for 48 h at 37° C. in the incubator. On day four, a stock solution of MTT (5 mg/mL in PBS buffer) was diluted with media so that, when 100 μL of the media was added to each well, 10 μL of MTT stock was applied. […] The optical density for each well at 550 nm was measured with a microplate reader.

[3] = test system: A549 cells; experiment: Cell cycle flow cytometry (propidium iodide); type: cell-based; details: 3 μM
Procedure: Flow-cytometric measurements were also performed to determine the effect of Pt(IV)(α-TOS)(OEt) exposure on cell cycle progression. A549 cells were treated with Pt(IV)(α-TOS)(OEt), 3 μM, for 24, and 48 hours. The cell cycle distribution was compared with untreated cells. […] After 24 hours the untreated population had 78.1% in G1 phase, 17.7% in S phase, 4.5% in G2/M phase. After 48 hours the untreated population had 81.0% in G1 phase, 16.0% in S phase, 3.0% in G2/M phase. After 24 hours the treated population had 64.7% in G1 phase, 31.7% in S phase, 3.6% in G2/M phase. After 48 hours, the treated population had 70.4% in G1 phase, 26.2% in S phase, 3.4% in G2/M phase. […] It was therefore clear that Pt(IV)(α-TOS)(OEt) disturbed DNA synthesis and arrest at S-phase.
In order to monitor the cell cycle, flow cytometry studies were carried out. A549 cells were incubated with and without the test compounds for 24 and 48 h at 37° C. Cells were harvested from adherent cultures by trypsinization and combined with all detached cells from the incubation medium to assess total cell viability. Following centrifugation at 1000 rpm for 5 min, cells were washed with PBS and then fixed with 70% ethanol in PBS. Fixed cells were collected by centrifugation at 2500 rpm for 3 min, washed with PBS and centrifuged as before. Cellular pellets were re-suspended in 50 μg/mL propidium iodide (Sigma) in PBS for nucleic acids staining and treated with 100 μg/mL RNaseA (Sigma). DNA content was measured on a FACSCalibur-HTS flow cytometer (BD Biosciences) using laser excitation at 488 nm and 20,000 events per sample were acquired. Cell cycle profiles were analysed using the ModFit software. For the apoptosis experiments, the Annexin V-FITC Early Apoptosis Detection Kit (Cell Signaling Technology) was used. The manufacture's protocol was followed to carry out this experiment. Briefly, untreated and treated cells (1×10^5) were suspended in 1× annexin binding buffer (96 μL) (10 mM HEPES, 140 mM NaCl, 2.5 mM CaCl2, pH 7.4), then 1 μL FITC annexin V and 12.5 μL propidium iodine (10 μg/mL) were added to each sample and incubated on ice for 15 min. Subsequently, more binding buffer (150 μL) was added while gently mixing. The samples were kept on ice prior to being read on the FACSCalibur-HTS flow cytometer (BD Biosciences) (20,000 events per sample were acquired). Cell populations were analysed using the FlowJo software (Tree Star). For the JC-1 assay, the JC-1 Mitochondrial Membrane Potential Assay Kit (Cayman) was used. The manufacture's protocol was followed to carry out this experiment. Briefly, to untreated and treated cells grown in 6-well plates (at a density of 5×10^5 cells/mL) was added the JC-1 staining solution (100 μL/mL of cell media). The cells were incubated for 30 min, harvested, and analysed by using the FACSCalibur-HTS flow cytometer (BD Biosciences) (20,000 events per sample were acquired). The FL1 channel was used to detect unhealthy or apoptotic cells with collapsed mitochondria. Cell populations were analysed using the FlowJo software (Tree Star).

## CC[O][Pt]([NH2])([NH2])([Cl])([Cl])[O]C(=O)CCC(=O)Oc1c(C)c(C)c2c(c1C)CCC(C)(CCCC(C)CCCC(C)CCCC(C)C)O2 (stereo not drawn) [Pt(IV)(α-TOS)(OEt)]
[1]
  cleaved PARP-1 expression: increased
  cleaved caspase-9 expression: increased
  p53 expression: increased in a dose-dependent manner
  γH2AX expression: an increase in γH2AX expression
[2]
  IC50: 5.9 µM
[3]; 24 hours
  cell population in G1 phase: 64.7%
  cell population in G2/M phase: 3.6%
  cell population in S phase: 31.7%
[3]; 48 hours
  cell population in G1 phase: 70.4%
  cell population in G2/M phase: 3.4%
  cell population in S phase: 26.2%
